Reference: US10204206B2, “Modelling of the action of an optical fiber in photodynamic therapy treatment, and assistance in the planning of said treatment” (STEBA MAOR SA, priority 2010, dated 2019)

Tested on: prostate
Test: Clinical trials of photodynamic therapy of prostate cancer: action radius of the optical fiber fitted to the actual necrotic volume
Format: in vivo, patients
Conditions: 28 clinical trials; 4 mg/kg; optical fiber at 763 nm; insertion lengths 15 to 40 mm; accuracy 1.08 mm
From the text: In this study, the Applicant has validated its modeling method for the use of an optical fiber with specific wavelength of 763 nm, in association with the WST11 photosensitive agent, for the treatment of prostate cancer. It is easily understood that the principles of modeling, as well as those of assistance in planning resulting from this modeling, can be used for other combinations of optical fibers and photosensitive agents, and applied to the treatment of other organs.
In reference to FIG. 2, the modeling method 100 thus includes a preliminary step 110 of constructing a database of results from clinical trials conducted previously on a plurality of patients using the same photosensitive material at the same dosage, such as 4 mg/kg of WST11, associated with at least one optical fiber that we seek to model. This construction consists of storing one record per patient in the database with at least the following elements: […]
Once steps 120 and 130 have been carried out, the only thing left to do is to determine, in a step 140 referenced in FIG. 2, the action radius R of an optical fiber by correlation, for each patient in the database, with the total theoretical action volume calculated with the measured volume of the actual necrotic area. […]

Q: Which “average action radius R of an optical fiber (value for which theoretical volume was closest to the volume of the actual necrotic area)” value does the source give for `CC[C@H]1c2cc3[n-]c(c(CC(=O)OC)c4nc(cc5[n-]c(cc(n2)[C@@H]1C)c(C(C)=O)c5C)[C@@H](C)[C@@H]4CCC(=O)[O-])c(C(=O)NCCS(=O)(=O)[O-])c3C.[H+].[H+].[Pd+2]` [WST11] here?
A: The value was 7.49 mm.
